The text below walks through data of patent US10821115B2, “Compounds that inhibit Mcl-1 protein” (priority 2017, dated 2020).

Test [1] has as its target recombinant human Mcl-1 (residues 171-327) / Bim interaction (Homo sapiens (Human), UniProt Q07820). Description: biochemical. As to conditions: read-out: Mcl-1 HTRF IC50. In kind it is binding.
Test [2] concerns human multiple myeloma cell line, OPM-2. Briefly: Cell viability assay (OPM-2 10 FBS), CellTiter-Glo. In kind it is cell-based. In a few lines:
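OPM-2 cells at 3000 cells/well in RPMI 1640 with 10% FBS were exposed to serially diluted compounds for 16 h at 37 °C, 5% CO2.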

[3] abbreviates: 0.1 nM Mcl-1(171-327), 0.05 nM biotin-Bim (51-76).
Where [4] appears, read: Homo sapiens, OPM-2, 16 h, read-out: OPM-2 10% FBS IC50 IP, OPM-2 cells, 10% FBS, 16 h incubation.
[5] abbreviates: TR-FRET, Mcl-1(171-327) / biotin-Bim (51-76).
[6] abbreviates: Homo sapiens, OPM-2, 16 h, read-out: OPM-2 10% FBS IC50 IP, OPM-2 cells, 10% FBS, 16 h, CellTiter-Glo.

Structures are written as SMILES. Like-named read-outs stand apart in the source and are kept apart here.

Chain of recombinant human Mcl-1 (residues 171-327) / Bim interaction (Q07820 171-327): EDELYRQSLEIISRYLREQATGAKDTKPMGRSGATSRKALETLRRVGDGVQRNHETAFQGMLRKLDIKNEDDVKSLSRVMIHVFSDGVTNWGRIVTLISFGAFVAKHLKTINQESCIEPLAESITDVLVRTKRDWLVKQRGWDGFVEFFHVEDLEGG

On to `CCO[C@@]1(CN2CCC(OC)CC2)/C=C/C[C@H](C)[C@@H](C)S(=O)(=O)NC(=O)c2ccc3c(c2)N(C[C@@H]2CC[C@H]21)C[C@@]1(CCCc2cc(Cl)ccc21)CO3` [Example 113, (1S,3′R,6′R,7′S,8′E,11′S,12′R)-6-chloro-7′-ethoxy-7′-((4-methoxy-1-piperidinyl)methyl)-11′,12′-dimethyl-3,4-dihydro-2H,15′H-spiro[naphthalene-1,22′-[20]oxa[13]thia[1,14]diazatetracyclo [14.7.2.0~3,6~.0~19,24~]pentacosa[8,16,18,24]tetraen]-15′-one 13′,13′-dioxide], for which the results for the IC50 in test [1] (setting [3]) and in test [2] (setting [4]) were 1.19 nM and 1330 nM, respectively.
Turning to `COc1ccc([C@@]2(O)/C=C/C[C@H](C)[C@@H](C)S(=O)(=O)NC(=O)c3ccc4c(c3)N(C[C@@H]3CC[C@H]32)C[C@@]2(CCCc3cc(Cl)ccc32)CO4)cn1` (single isomer, unassigned) [Example 100362], the 50% inhibitory concentration (IC50) came out at 0.888 nM in test [1] (setting [5]) and 2100 nM in test [2] (setting [6]).
For the compound `CC[C@@H]1CC/C=C/[C@](CN2CCN3CCOC[C@@H]3C2)(OC)[C@@H]2CC[C@H]2CN2C[C@@]3(CCCc4cc(Cl)ccc43)COc3ccc(cc32)C(=O)NS1(=O)=O` [Example 28, (1S,3′R,6′R,7′S,8′E,12′R)-6-chloro-12′-ethyl-7′-((9aS)-hexahydropyrazino[2,1-c][1,4]oxazin-8(1H)-ylmethyl)-7′-methoxy-3,4-dihydro-2H,15′H-spiro[naphthalene-1,22′-[20]oxa[13]thia[1,14]diazatetracyclo [14.7.2.0~3,6~.0~19,24~]pentacosa[8,16,18,24]tetraen]-15′-one 13′,13′-dioxide], the IC50 in test [1] (setting [3]) was determined as 0.082 nM; in test [2] (setting [4]), 111 nM.
For the compound `C[C@@H]1CS(=O)(=O)NC(=O)c2ccc3c(c2)N(C[C@@H]2CC[C@H]2[C@@](O)(CN2CCN(C4COC4)CC2)/C=C/[C@@H]1C)C[C@@]1(CCCc2cc(Cl)ccc21)CO3` [Example 165, (1S,3′R,6′R,7′R,8′E,10′S,11′S)-6-chloro-7′-hydroxy-10′,11′-dimethyl-7′-((4-(3-oxetanyl)-1-piperazinyl)methyl)-3,4-dihydro-2H,15′H-spiro[naphthalene-1,22′-[20]oxa[13]thia[1,14]diazatetracyclo [14.7.2.0~3,6~.0~19,24~]pentacosa[8,16,18,24]tetraen]-15′-one 13′,13′-dioxide], the figures for the IC50 in test [1] (setting [3]) and in test [2] (setting [4]) were 0.19 nM and 182 nM, respectively.
Consider `CO[C@@]1([C@@H](C)O)/C=C/C[C@H](C)[C@@H](C)S(=O)(=O)NC(=O)c2ccc3c(c2)N(C[C@@H]2CC[C@H]21)C[C@@]1(CCCc2cc(Cl)ccc21)CO3` (stereo in doubt) [Example 100487], for which the values for the IC50 in test [1] (setting [5]) and in test [2] (setting [6]) were 0.436 nM and 340 nM, respectively.
The like results for `CO[C@]1(c2nccn2C)/C=C/C[C@H](C)[C@@H](C)S(=O)(=O)NC(=O)c2ccc3c(c2)N(C[C@@H]2CC[C@H]21)C[C@@]1(CCCc2cc(Cl)ccc21)CO3` (single isomer, unassigned) [Example 100553] were, in that order, 1.04 nM and 2790 nM.
On to `C[C@@H]1[C@@H](C)CCCC2(CN3CCOC[C@H]3CO2)[C@@H]2CC[C@H]2CN2C[C@@]3(CCCc4cc(Cl)ccc43)COc3ccc(cc32)C(=O)NS1(=O)=O` (stereo partly drawn) [Example 400, (1S,3′R,6′R,7′S,9a″S,11′S,12′R)-6-chloro-11′,12′-dimethyl-3,4,6″,7″,9″,9a″-hexahydro-1″H,2H,15′H-dispiro[naphthalene-1,22′-[20]oxa[13]thia[1,14]diazatetracyclo[14.7.2.0-3,6˜.0˜19,24˜]pentacosa[16,18,24]triene-7′,3″-[1,4]oxazino[3,4-c][1,4]oxazin]-15′-one 13′,13′-dioxide], for which the IC50 in test [1] (setting [3]) was 1.1 nM; in test [2] (read-out: OPM-2 10% FBS IC50 IP, OPM-2 cells, 10% FBS, 16 h incubation), 2870 nM.
Regarding `C[C@@H]1[C@@H](C)CCC[C@](O)(COCCN(C)C)[C@@H]2CC[C@H]2CN2C[C@@]3(CCCc4cc(Cl)ccc43)COc3ccc(cc32)C(=O)NS1(=O)=O` [Example 100195, (1S,3′R,6′R,7′R,11′S,12′R)-6-chloro-7′-((2-(dimethylamino)ethoxy)methyl)-7′-hydroxy-11′,12′-dimethyl-3,4-dihydro-2H,15′H-spiro[naphthalene-1,22′-[20]oxa[13]thia[1,14]diazatetracyclo [14.7.2.0~3,6~.0~19,24~]pentacosa[16,18,24]trien]-15′-one 13′,13′-dioxide], the results for the IC50 in test [1] (setting [5]) and in test [2] (setting [6]) were 1.07 nM and 625 nM, respectively.
The matching figures for `CC(C)OC[C@]1(O)/C=C/C[C@H](C)[C@@H](C)S(=O)(=O)NC(=O)c2ccc3c(c2)N(C[C@@H]2CC[C@H]21)C[C@@]1(CCCc2cc(Cl)ccc21)CO3` [Example 100442, (1S,3′R,6′R,7′S,8′E,11′S,12′R)-6-chloro-7′-hydroxy-11′,12′-dimethyl-7′-((2-propanyloxy)methyl)-3,4-dihydro-2H,15′H-spiro[naphthalene-1,22′-[20]oxa[13]thia[1,14]diazatetracyclo [14.7.2.0~3,6~.0~19,24~]pentacosa[8,16,18,24]tetraen]-15′-one 13′,13′-dioxide]: 0.921 nM and 3870 nM.
The like results for `C[C@@H]1[C@@H](C)C/C=C/[C@](O)(c2ccc(F)cn2)[C@@H]2CC[C@H]2CN2C[C@@]3(CCCc4cc(Cl)ccc43)COc3ccc(cc32)C(=O)NS1(=O)=O` [Example 100403, (1S,3′R,6′R,7′R,8′E,11′S,12′R)-6-chloro-7′-(5-fluoro-2-pyridinyl)-7′-hydroxy-11′,12′-dimethyl-3,4-dihydro-2H,15′H-spiro[naphthalene-1,22′-[20]oxa[13]thia[1,14]diazatetracyclo [14.7.2.0~3,6~.0~19,24~]pentacosa[8,16,18,24]tetraen]-15′-one 13′,13′-dioxide] were, in that order, 0.226 nM and 390 nM.
The like results for `Cc1ncc([C@@]2(O)/C=C/C[C@H](C)[C@@H](C)S(=O)(=O)NC(=O)c3ccc4c(c3)N(C[C@@H]3CC[C@H]32)C[C@@]2(CCCc3cc(Cl)ccc32)CO4)n1C` (single isomer, unassigned) [Example 100555] were, in that order, 0.101 nM and 113 nM.
For `C[C@@H]1[C@@H](C)C/C=C/[C@](O)(C(F)(F)C(=O)N(C)C)[C@@H]2CC[C@H]2CN2C[C@@]3(CCCc4cc(Cl)ccc43)COc3ccc(cc32)C(=O)NS1(=O)=O` [Example 100413, 2-((1S,3′R,6′R,7′R,8′E,11′S,12′R)-6-chloro-7′-hydroxy-11′,12′-dimethyl-13′,13′-dioxido-15′-oxo-3,4-dihydro-2H-spiro[naphthalene-1,22′-[20]oxa[13]thia[1,14]diazatetracyclo [14.7.2.0~3,6~.0~19,24~]pentacosa[8,16,18,24]tetraen]-7′-yl)-2,2-difluoro-N,N-dimethylacetamide], the IC50 turned out to be 0.228 nM in test [1] (setting [5]) and 556 nM in test [2] (setting [6]).
For `CO[C@]1(CN2CCN(C(C)C)C(=O)C2)/C=C/C[C@H](C)[C@@H](C)S(=O)(=O)NC(=O)c2ccc3c(c2)N(C[C@@H]2CC[C@H]21)C[C@@]1(CCCc2cc(Cl)ccc21)CO3` [Example 323, (1S,3′R,6′R,7′R,8′E,11′S,12′R)-6-chloro-7′-methoxy-11′,12′-dimethyl-7′-((4-(1-methylethyl)-3-oxo-1-piperazinyl)methyl)-3,4-dihydro-2H,15′H-spiro[naphthalene-1,22′-[20]oxa[13]thia[1,14]diazatetracyclo [14.7.2.0~3,6~.0~19,24~]pentacosa[8,16,18,24]tetraen]-15′-one 13′,13′-dioxide], the IC50 amounted to 0.166 nM in test [1] (setting [3]) and 169 nM in test [2] (setting [4]).
Regarding `CO[C@@]1(CC(=O)N2CC[C@@H](N(C)C)C2)/C=C/C[C@H](C)[C@@H](C)S(=O)(=O)NC(=O)c2ccc3c(c2)N(C[C@@H]2CC[C@H]21)C[C@@]1(CCCc2cc(Cl)ccc21)CO3` (single isomer, unassigned) [Example 100318], the IC50 in test [1] (setting [5]) was 0.095 nM; in test [2] (setting [6]), 114 nM.
Regarding `CO[C@@]1(Cc2nc(CN(C)C)c(C)o2)/C=C/C[C@H](C)[C@@H](C)S(=O)(=O)NC(=O)c2ccc3c(c2)N(C[C@@H]2CC[C@H]21)C[C@@]1(CCCc2cc(Cl)ccc21)CO3` [Example 100586, (1S,3′R,6′R,7′S,8′E,11′S,12′R)-6-chloro-7′-((4-((dimethylamino)methyl)-5-methyl-1,3-oxazol-2-yl)methyl)-7′-methoxy-11′,12′-dimethyl-3,4-dihydro-2H,15′H-spiro[naphthalene-1,22′-[20]oxa[13]thia[1,14]diazatetracyclo [14.7.2.0~3,6~.0~19,24~]pentacosa[8,16,18,24]tetraen]-15′-one 13′,13′-dioxide], the IC50 came out at 0.074 nM in test [1] (setting [5]) and 453 nM in test [2] (setting [6]).
The matching figures for `C[C@@H]1[C@@H](C)CCC[C@@](O)(Cc2ncccn2)[C@@H]2CC[C@H]2CN2C[C@@]3(CCCc4cc(Cl)ccc43)COc3ccc(cc32)C(=O)NS1(=O)=O` [Example 100146, (1S,3′R,6′R,7′R,11′S,12′R)-6-chloro-7′-hydroxy-11′,12′-dimethyl-7′-(2-pyrimidinylmethyl)-3,4-dihydro-2H,15′H-spiro[naphthalene-1,22′-[20]oxa[13]thia[1,14]diazatetracyclo [14.7.2.0~3,6~.0~19,24~]pentacosa[16,18,24]trien]-15′-one 13′,13′-dioxide]: 0.515 nM and 347 nM.
